Assays:
[1] = Suspension polymerization of vinyl chloride monomer in pop bottles with gem-diperoxyester initiators
Method: A series of polymerizations was performed to illustrate the improved efficiencies of the new compounds as initiators of vinyl chloride monomer. 2,2-Bis(2-ethyl hexanoylperoxy)butane (KP-A) is one compound that can be made by the procedures of the above referenced Japanese patents and was included as typical of the prior art.
The data in Table III were obtained in the following manner:
The suspension polymerizations were performed in pop bottles using uninhibited monomer. Duplicate bottles were analyzed at each polymerization time interval. The following table lists some general information about the polymerization procedure used.
After the desired amounts of reactants were added to the pop bottles, they were capped, the contents almost melted, and the bottles placed in a rotating constant temperature bath at the temperatures and for the times shown in Table III. The bottles were frozen before venting-off excess monomer. The polymer was filtered, washed, and dried. All initiator concentrations shown have been corrected for purity.

[2] = Hot block gel tests with polyester resin (curing); conditions: 0.75 % Wt used
Method: The unsaturated polyester resins cured by the present process comprises those polyesters described in U.S. Pat. No. 4,129,613, the disclosure thereof being incorporated by reference herein. The following Table IV is typical of the improved results obtained with the present compounds.
HOT BLOCK GEL TESTS WITH POLYESTER RESIN
USING VARIOUS GEM-DIPEROXYESTERS
Resin: USS Chemical MR-941 (Isophthalic)
Block Temp.: 180 ± 1° F. (82° C.)
Peroxide Concentration Corrected for Purity, […]

[3] = Half-lives of gem-diperoxyesters (10 hour half-life temperature); format: physicochemical; conditions: 0.2M in benzene
Excerpt: HALF-LIFES OF VARIOUS GEM-DIPEROXYESTERS

[4] = SET 1, 7 hrs. at 22° C., 0.20 % Wt. used
[5] = SET 2, 7 hrs. at 40° C., 4.01 × 10^-4 moles initiator/100g VCM
[6] = SET 3, 6 hrs. at 50° C., 2.50 × 10^-4 moles initiator/100g VCM
[7] = SET 4, 5.5 hrs. at 55° C., 1.75 × 10^-4 moles initiator/100g VCM
[8] = SET 5, 5 hrs. at 60° C., 1.25 × 10^-4 moles initiator/100g VCM
[9] = SET 5, 5 hrs. at 60° C., 1.75 × 10^-4 moles initiator/100g VCM
[10] = SET 1, block temp. 180 ± 1° F. (82° C.)
[11] = SET 1, 7 hrs. at 22° C., 0.10 % Wt. used
[12] = SET 2, block temp. 180 ± 1° F. (82° C.)
[13] = SET 4, 5.5 hrs. at 55° C., 1.25 × 10^-4 moles initiator/100g VCM
[14] = SET 3, 6 hrs. at 50° C., 1.50 × 10^-4 moles initiator/100g VCM

Row | Molecule | % Conversion [1, 4] | % Conversion [1, 5] | % Conversion [1, 6] | % Conversion [1, 7] | % Conversion [1, 8] | % Conversion [1, 9] | Peak Temp (exotherm) [2, 10] | % Conversion [1, 11] | 10 Hour Half-Life Temperature [3] | Peak Temp (exotherm) [2, 12] | % Conversion [1, 13] | % Conversion [1, 14]
1 | CCC(CC)(OOC(=O)C(C)C)OOC(=O)C(C)C [KP-E, 3,3-bis(2-methylpropionylperoxy)pentane] | 0.5% | 39.6% | 74.4% | 76.1% | 71.5% | 86.7% | – | – | – | – | – | –
2 | CCC(CC)(OOC(=O)C(C)(C)C)OOC(=O)C(C)(C)C [KP-B, 3,3-bis(pivaloylperoxy)pentane] | – | 90.4% | 51.8% | – | – | – | 221 °F. | 52.2% | 24 °C | – | – | –
3 | CCCCC(CC)C(=O)OOC(C)(CC)OOC(=O)C(CC)CCCC (centres unmarked) [KP-A, 2,2-Bis(2-Ethyl Hexanoylperoxy)Butane, reference compound] | 5.0% | 45.9% | 75.85% | 72.1% | 67.8% | 83.2% | – | – | 43.7 °C | 275 °F. | 53.4% | –
4 | 3,3-bis(neodecanoylperoxy)pentane [KP-C] | – | 63.1% | 38.0% | – | – | – | 225 °F. | 27.8% | 23.3 °C | – | – | –
5 | CCCCC(CC)C(=O)OOC(C)(CC(C)(C)O)OOC(=O)C(CC)CCCC (centres unmarked) [KP-H, 2,2-bis(2-ethylhexanoylperoxy)-4-hydroxy-4-methylpentane] | – | – | – | 63.9% | – | 58.1% | – | – | – | – | – | –
6 | CCCC(C)C(=O)OOC(CC)(CC)OOC(=O)C(C)CCC (centres unmarked) [KP-G, 3,3-bis(2-methylpentanoylperoxy)pentane] | 1.6% | 67.3% | 88.5% | 86.2% | 72.6% | 85.9% | – | – | – | – | 72.8% | –
7 | CCC(CC)C(=O)OOC(C)(CC(C)(C)O)OOC(=O)C(CC)CC [KP-I, 2,2-bis(2-ethylbutanoylperoxy)-4-hydroxy-4-methylpentane] | – | – | – | 66.1% | – | 65.4% | – | – | – | – | – | –
8 | CCC(CC)C(=O)OOC(CC)(CC)OOC(=O)C(CC)CC [KP-F, 3,3-Bis(2-Ethyl Butanoylperoxy)Pentane] | 4.3% | 88.3% | 92.5% | 85.9% | 67.8% | 81.8% | – | – | 40 °C | 271 °F. | 74.1% | 82.5%
9 | CCCCC(CC)C(=O)OOC(CC)(CC)OOC(=O)C(CC)CCCC (centres unmarked) [KP-D, 3,3-bis(2-ethylhexanoylperoxy)pentane] | 10.7% | 75.4% | 89.1% | 84.2% | 70.5% | 83.8% | 249 °F. | – | 39.7 °C | 260 °F. | 69.6% | 79.1%
10 | CC(C)(C)C1CCC(OC(=O)OOC(=O)OC2CCC(C(C)(C)C)CC2)CC1 (centres unmarked) [DBCPD, Di4-t-butyl cyclohexylperoxydicarbonate, reference compound] | – | – | – | – | – | – | 244 °F. | – | – | 260 °F. | – | –

From patent US4370459A, “Polymerizing unsaturated monomers with gem-diperoxyester catalyst” (priority 1980, dated 1983)
